The first test relates to HepG2. Briefly: Cell viability (CellTiter-Blue, 72 h), HepG2 liver cancer cells. Type of test: cell-based. The settings on record: Homo sapiens, HepG2, 72 h, read-out: IC50 values. The procedure: The cell lines tested in this Example were as follows. Breast cancer: MDA-MB-231; SK-BR3; and BT474. Liver cancer: HepG2.
(§1) The phytocannabinoids were tested alone and in various ratioed combinations in media containing final concentrations of 10% and 1% foetal bovine serum at 72 h for the breast and prostate cancer lines and 1% foetal bovine serum for the liver cancer line HepG2.
Each tumour cell line was maintained in vitro in RPMI 1640+10% heat inactivated FBS and 2 mM L-glutamine (growth media) at 37° C. in 5% CO2 and humidified conditions. The cells were harvested, washed, re-suspended into growth medium and counted. The cells were re-suspended into assay media (RPMI 1640+5% heat inactivated FBS+ and 2 mM L-glutamine) at 8×104-2×10^5 cells/ml (dependent upon cell type) and plated into the middle 240 wells of 384 well tissue culture plates (Corning CellBind, black-wall plates) 12.5 μl/well aliquots; 62.5 μl of growth media was aliquoted into the outer wells. There were 4 plates for each cell line. The plates were incubated overnight at 37° C., in 5% humidified CO2.
The phytocannabinoid test compounds were prepared in 100% DMSO vehicle at a stock concentration of 10 mM.
Starting with the 10 mM stock, the compounds were diluted to 125 μM in FBS-free growth media.
These were diluted in FBS-free growth media to 125 μM before serial dilution.
5 volumes of CBD 10 mM stock was added to 1 volume of the other agent (also at 10 mM) and 4 volumes of DMSO. This made a final concentration of 5 mM:1 mM. This was then diluted in FBS-free growth media so the top concentration of CBD would be 125 μM (before serial dilution). Each compound and compound combination stock was serially diluted in FBS-free growth media (containing 1.25% v/v DMSO) from 125 μM to 41.7, 13.89, 4.63, 1.54, 0.514, 0.171, 0.057 and 0.019 μM (1.25× final assay concentrations). Vehicle was prepared at equivalent dilutions in assay media. The top final concentration of compound in the assay was always 100 μM so CBD5:1CBG was 100 μM CBD and 20 μM CBG.
The plates were incubated for 72 h at 37° C. in 5% humidified CO2. To develop the plates, at 72 h, 10 μl of CellTiter-Blue™ reagent was added to each test/blank well. The plates were incubated at 37° C., 5% humidified CO2. Fluorescence was measured using a Flex II Station plate reader (570 nm excitation wavelength, 600 nm emission wavelength, 590 nm cut-off) after 3 h.
The raw data values expressed in relative fluorescent units were normalised to the vehicle for each individual plate and any reduction in fluorescence indicated a decrease in viability.
The data were analysed in GraphPad PRISM using a non-linear sigmoidal plot with variable slope (asymmetric five point linear regression) and where possible an IC50 value for each single compound and combination was generated.
Background: Alamar Blue is a resazurin reagent that responds to reducing activity.
On to `C=C(C)[C@@H]1CCC(C)=C[C@H]1c1c(O)cc(CCCCC)cc1O` [CBD, Cannabidiol], for which the IC50 was determined as 3.3 µM.
Same read-out and setting: next, `C=C(C)[C@@H]1CCC(C)=C[C@H]1c1c(O)cc(CCCCC)c(C(=O)O)c1O` [CBDA, Cannabidiolic acid]: 7.4 µM.
Take `CCCCCc1cc(O)c(C/C=C(\C)CCC=C(C)C)c(O)c1` [CBG, Cannabigerol]: the IC50 was found to be 3.7 µM.
Still for that read-out and setting: the same measure for `CCCCCc1cc(O)c(C/C=C(\C)CCC=C(C)C)c(O)c1C(=O)O` [CBGA, Cannabigerolic acid]: 9.3 µM; for `CCCc1cc(O)c2c(c1)OC(C)(C)[C@@H]1CCC(C)=C[C@@H]21` [THCV, Tetrahydrocannabivarin]: 7.2 µM.

For a further test, the system named is LNCAP cells compared to DU145 cells. The test can be described thus: Cell viability, prostate cancer lines LNCAP and DU145 (potency comparison). The settings on record: media containing 10% FBS. Type of test: cell-based. The procedure: as §1
With `CCCc1cc(O)c2c(c1)OC(C)(C)[C@@H]1CCC(C)=C[C@@H]21` [THCV, Tetrahydrocannabivarin], the “fold more potent in LNCAP cells compared to DU145 cells” value came out at 5 fold.

What is called IC50 is the concentration that inhibits the measured activity by half.
